Source: PubChem BioAssay (NCI)
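Method: 48-hour compound exposure of cells in 96-well plates, five concentrations, linear interpolation of endpoints. TGI is the concentration that stops growth completely.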

Key:
Experiment in all cases: NCI anticancer screen, dose series, 48 h
CCRF-CEM leukemia = tested on: CCRF-CEM leukemia
TK-10 renal = tested on: TK-10 renal
MALME-3M melanoma = tested on: MALME-3M melanoma
LOX IMVI melanoma = tested on: LOX IMVI melanoma
SK-OV-3 ovarian = tested on: SK-OV-3 ovarian
SNB-19 CNS = tested on: SNB-19 CNS
SN12C renal = tested on: SN12C renal
SNB-78 CNS = tested on: SNB-78 CNS
KM12 colon = tested on: KM12 colon
NCI-H522 lung = tested on: NCI-H522 lung
OVCAR-5 ovarian = tested on: OVCAR-5 ovarian
NCI-H460 lung = tested on: NCI-H460 lung
HCT-116 colon = tested on: HCT-116 colon
HCC-2998 colon = tested on: HCC-2998 colon
NCI-H23 lung = tested on: NCI-H23 lung
SF-539 CNS = tested on: SF-539 CNS
RXF 393 renal = tested on: RXF 393 renal
MOLT-4 leukemia = tested on: MOLT-4 leukemia
DLD-1 colon = tested on: DLD-1 colon
M19-MEL melanoma = tested on: M19-MEL melanoma
SK-MEL-2 melanoma = tested on: SK-MEL-2 melanoma
HL-60(TB) leukemia = tested on: HL-60(TB) leukemia
HOP-62 NSCLC = tested on: HOP-62 NSCLC
SK-MEL-28 melanoma = tested on: SK-MEL-28 melanoma
UACC-257 melanoma = tested on: UACC-257 melanoma
SF-268 CNS = tested on: SF-268 CNS
UO-31 renal = tested on: UO-31 renal
OVCAR-4 ovarian = tested on: OVCAR-4 ovarian
SR leukemia = tested on: SR leukemia
K-562 leukemia = tested on: K-562 leukemia
SNB-75 CNS = tested on: SNB-75 CNS
ACHN renal = tested on: ACHN renal
OVCAR-3 ovarian = tested on: OVCAR-3 ovarian
A498 renal = tested on: A498 renal
XF 498 CNS = tested on: XF 498 CNS
DMS 114 small cell lung = tested on: DMS 114 small cell lung
M14 melanoma = tested on: M14 melanoma
U251 CNS = tested on: U251 CNS
UACC-62 melanoma = tested on: UACC-62 melanoma
LXFL 529 NSCLC = tested on: LXFL 529 NSCLC
EKVX NSCLC = tested on: EKVX NSCLC
HT29 colon = tested on: HT29 colon
IGROV1 ovarian = tested on: IGROV1 ovarian
OVCAR-8 ovarian = tested on: OVCAR-8 ovarian
DMS 273 small cell lung = tested on: DMS 273 small cell lung
A549 NSCLC = tested on: A549 NSCLC
SK-MEL-5 melanoma = tested on: SK-MEL-5 melanoma
HCT-15 colon = tested on: HCT-15 colon
786-0 renal = tested on: 786-0 renal
SW-620 colon = tested on: SW-620 colon
COLO 205 colon = tested on: COLO 205 colon
SF-295 CNS = tested on: SF-295 CNS
KM20L2 colon = tested on: KM20L2 colon
HOP-92 NSCLC = tested on: HOP-92 NSCLC
RPMI-8226 leukemia = tested on: RPMI-8226 leukemia
NCI-H226 lung = tested on: NCI-H226 lung
CAKI-1 renal = tested on: CAKI-1 renal

COc1c(Cl)cc(Cl)cc1S(=O)O
TGI (CCRF-CEM leukemia): > 100 µM
TGI (TK-10 renal): > 100 µM
TGI (MALME-3M melanoma): > 100 µM
TGI (LOX IMVI melanoma): > 100 µM
TGI (SK-OV-3 ovarian): > 100 µM
TGI (SNB-19 CNS): > 100 µM
TGI (SN12C renal): > 100 µM
TGI (SNB-78 CNS): > 100 µM
TGI (KM12 colon): > 100 µM
TGI (NCI-H522 lung): > 100 µM
TGI (OVCAR-5 ovarian): > 100 µM
TGI (NCI-H460 lung): > 100 µM
TGI (HCT-116 colon): > 100 µM
TGI (HCC-2998 colon): > 100 µM
TGI (NCI-H23 lung): > 100 µM
TGI (SF-539 CNS): > 100 µM
TGI (RXF 393 renal): > 100 µM
TGI (MOLT-4 leukemia): > 100 µM
TGI (DLD-1 colon): > 100 µM
TGI (M19-MEL melanoma): > 100 µM
TGI (SK-MEL-2 melanoma): > 100 µM
TGI (HL-60(TB) leukemia): > 100 µM
TGI (HOP-62 NSCLC): > 100 µM
TGI (SK-MEL-28 melanoma): > 100 µM
TGI (UACC-257 melanoma): > 100 µM
TGI (SF-268 CNS): > 100 µM
TGI (UO-31 renal): > 100 µM
TGI (OVCAR-4 ovarian): > 100 µM
TGI (SR leukemia): > 100 µM
TGI (K-562 leukemia): > 100 µM
TGI (SNB-75 CNS): > 100 µM
TGI (ACHN renal): > 100 µM
TGI (OVCAR-3 ovarian): > 100 µM
TGI (A498 renal): > 100 µM
TGI (XF 498 CNS): > 100 µM
TGI (DMS 114 small cell lung): > 100 µM
TGI (M14 melanoma): > 100 µM
TGI (U251 CNS): > 100 µM
TGI (UACC-62 melanoma): > 100 µM
TGI (LXFL 529 NSCLC): > 100 µM
TGI (EKVX NSCLC): > 100 µM
TGI (HT29 colon): > 100 µM

CC(=O)NNc1nc(C)c(C(=O)NNC(=O)C(=O)Nc2c(C)cccc2C(C)C)s1
TGI (CCRF-CEM leukemia): > 100 µM
TGI (TK-10 renal): > 100 µM
TGI (MALME-3M melanoma): > 100 µM
TGI (LOX IMVI melanoma): > 100 µM
TGI (SK-OV-3 ovarian): > 100 µM
TGI (SNB-19 CNS): > 100 µM
TGI (IGROV1 ovarian): > 100 µM
TGI (SN12C renal): > 100 µM
TGI (SNB-78 CNS): > 100 µM
TGI (KM12 colon): > 100 µM
TGI (NCI-H522 lung): > 100 µM
TGI (OVCAR-5 ovarian): > 100 µM
TGI (NCI-H460 lung): > 100 µM
TGI (OVCAR-8 ovarian): > 100 µM
TGI (HCT-116 colon): > 100 µM
TGI (HCC-2998 colon): > 100 µM
TGI (DMS 273 small cell lung): > 100 µM
TGI (NCI-H23 lung): > 100 µM
TGI (SF-539 CNS): > 100 µM
TGI (A549 NSCLC): > 100 µM
TGI (MOLT-4 leukemia): > 100 µM
TGI (SK-MEL-5 melanoma): > 100 µM
TGI (M19-MEL melanoma): > 100 µM
TGI (SK-MEL-2 melanoma): > 100 µM
TGI (HL-60(TB) leukemia): > 100 µM
TGI (HOP-62 NSCLC): > 100 µM
TGI (SK-MEL-28 melanoma): > 100 µM
TGI (HCT-15 colon): > 100 µM
TGI (786-0 renal): > 100 µM
TGI (SW-620 colon): > 100 µM
TGI (COLO 205 colon): > 100 µM
TGI (UACC-257 melanoma): > 100 µM
TGI (SF-268 CNS): > 100 µM
TGI (UO-31 renal): > 100 µM
TGI (OVCAR-4 ovarian): > 100 µM
TGI (SF-295 CNS): > 100 µM
TGI (SR leukemia): > 100 µM
TGI (K-562 leukemia): > 100 µM
TGI (KM20L2 colon): > 100 µM
TGI (ACHN renal): > 100 µM
TGI (OVCAR-3 ovarian): > 100 µM
TGI (A498 renal): > 100 µM
TGI (XF 498 CNS): > 100 µM
TGI (DMS 114 small cell lung): > 100 µM
TGI (M14 melanoma): > 100 µM
TGI (HOP-92 NSCLC): > 100 µM
TGI (RPMI-8226 leukemia): > 100 µM
TGI (NCI-H226 lung): > 100 µM
TGI (UACC-62 melanoma): > 100 µM
TGI (LXFL 529 NSCLC): > 100 µM
TGI (EKVX NSCLC): > 100 µM
TGI (HT29 colon): > 100 µM

CCOC(=O)C(Cc1c(C=O)[nH]c2ccccc12)(NC(=O)c1ccccc1)C(=O)OCC
TGI (CCRF-CEM leukemia): 39 µM
TGI (TK-10 renal): 69.9 µM
TGI (MALME-3M melanoma): 33.9 µM
TGI (SK-OV-3 ovarian): 79.8 µM
TGI (SNB-19 CNS): 18.4 µM
TGI (IGROV1 ovarian): 43.7 µM
TGI (SN12C renal): 26.6 µM
TGI (KM12 colon): 26.9 µM
TGI (OVCAR-5 ovarian): 35.3 µM
TGI (NCI-H460 lung): 59.7 µM
TGI (OVCAR-8 ovarian): 65.7 µM
TGI (HCC-2998 colon): 24.6 µM
TGI (NCI-H23 lung): 37.1 µM
TGI (SF-539 CNS): 30.3 µM
TGI (A549 NSCLC): 42.2 µM
TGI (RXF 393 renal): 26 µM
TGI (MOLT-4 leukemia): 37.1 µM
TGI (SK-MEL-5 melanoma): 24.5 µM
TGI (DLD-1 colon): 25 µM
TGI (M19-MEL melanoma): 31.8 µM
TGI (SK-MEL-2 melanoma): 32.4 µM
TGI (HL-60(TB) leukemia): > 100 µM
TGI (SK-MEL-28 melanoma): 34.2 µM
TGI (HCT-15 colon): 29.8 µM
TGI (786-0 renal): 34.7 µM
TGI (SW-620 colon): 32.1 µM
TGI (COLO 205 colon): 34.7 µM
TGI (UACC-257 melanoma): 39.2 µM
TGI (SF-268 CNS): 39.5 µM
TGI (UO-31 renal): 62.4 µM
TGI (SF-295 CNS): 33 µM
TGI (SR leukemia): > 100 µM
TGI (K-562 leukemia): 45.2 µM
TGI (ACHN renal): 39.3 µM
TGI (OVCAR-3 ovarian): 40.3 µM
TGI (XF 498 CNS): 32.1 µM
TGI (DMS 114 small cell lung): 39 µM
TGI (M14 melanoma): 33.7 µM
TGI (HOP-92 NSCLC): 31.3 µM
TGI (RPMI-8226 leukemia): > 100 µM
TGI (NCI-H226 lung): 45.9 µM
TGI (U251 CNS): 25.5 µM
TGI (EKVX NSCLC): 42.7 µM
TGI (HT29 colon): 37.2 µM

CCCCN(CCCC)CC(C(=O)Nc1ccccc1)/C(C)=N\NC(=O)c1ccncc1 (stereo not given)
TGI (TK-10 renal): > 100 µM
TGI (MALME-3M melanoma): > 100 µM
TGI (LOX IMVI melanoma): > 100 µM
TGI (SK-OV-3 ovarian): > 100 µM
TGI (SNB-19 CNS): > 100 µM
TGI (IGROV1 ovarian): > 100 µM
TGI (SN12C renal): > 100 µM
TGI (SNB-78 CNS): > 100 µM
TGI (KM12 colon): > 100 µM
TGI (NCI-H522 lung): > 100 µM
TGI (OVCAR-5 ovarian): > 100 µM
TGI (NCI-H460 lung): > 100 µM
TGI (OVCAR-8 ovarian): > 100 µM
TGI (HCT-116 colon): > 100 µM
TGI (HCC-2998 colon): > 100 µM
TGI (DMS 273 small cell lung): > 100 µM
TGI (NCI-H23 lung): > 100 µM
TGI (SF-539 CNS): > 100 µM
TGI (A549 NSCLC): > 100 µM
TGI (RXF 393 renal): > 100 µM
TGI (MOLT-4 leukemia): > 100 µM
TGI (SK-MEL-5 melanoma): > 100 µM
TGI (CAKI-1 renal): > 100 µM
TGI (DLD-1 colon): > 100 µM
TGI (M19-MEL melanoma): > 100 µM
TGI (HL-60(TB) leukemia): > 100 µM
TGI (HOP-62 NSCLC): > 100 µM
TGI (SK-MEL-28 melanoma): > 100 µM
TGI (HCT-15 colon): > 100 µM
TGI (786-0 renal): > 100 µM
TGI (SW-620 colon): > 100 µM
TGI (COLO 205 colon): > 100 µM
TGI (UACC-257 melanoma): > 100 µM
TGI (SF-268 CNS): > 100 µM
TGI (UO-31 renal): > 100 µM
TGI (OVCAR-4 ovarian): > 100 µM
TGI (SF-295 CNS): > 100 µM
TGI (SR leukemia): > 100 µM
TGI (K-562 leukemia): > 100 µM
TGI (SNB-75 CNS): > 100 µM
TGI (KM20L2 colon): > 100 µM
TGI (ACHN renal): > 100 µM
TGI (OVCAR-3 ovarian): > 100 µM
TGI (XF 498 CNS): > 100 µM
TGI (DMS 114 small cell lung): > 100 µM
TGI (M14 melanoma): > 100 µM
TGI (HOP-92 NSCLC): > 100 µM
TGI (RPMI-8226 leukemia): > 100 µM
TGI (NCI-H226 lung): > 100 µM
TGI (U251 CNS): > 100 µM
TGI (UACC-62 melanoma): > 100 µM
TGI (HT29 colon): > 100 µM
